The assay has as its system SW1 tumors. Put plainly: cDNA microarray gene expression profiling of SW1 tumors. It is filed as in vivo, mouse. The source says: FIGS. 8A and 8B show gene profiling analysis of SW1 tumors expressing the ATF2^51-100 peptide. Tumors generated, in the absence or presence of a peptide, were used as source of mRNA for array analysis of 10K mouse genes (see Example 5). […] In all cases, the data represent analyses carried out 4 times from 4 different pools of tumors.
To elucidate the molecular pathways affected by expression of the ATF2^51-100 peptide, we used cDNA microarray analysis to compare the RNA expression profiles of SW1 tumors that express this peptide or a control vector (FIG. 8A). The 10k mouse Gem 2 gene set (Incyte Genomics Inc, Palo Alto, Calif.) was printed at the NCI on poly-L-lysine-coated glass using a Biorobotics TASII arrayer (Cambridge, England). All protocols for manufacturing and hybridization of microarrays are posted on the NCI web site (see, e.g., nciarray.nci.nih.gov). Approximately 20 μg of total RNA were used in the reverse transcription reaction to directly label the probe with Cy-5 dUTP or Cy-3 dUTP (Amersham). Hybridizations were performed at 65° C. for 12-18 h in a hybridization volume of 35 μL. The hybridized arrays were scanned using an Axon GenePix 4000 scanner (Union City, Calif.) and fluorescence data were collected using the GenePix software.
mRNA was prepared from a pool of 4 tumors obtained from two different experiments. In both cases, tumors were excised 2 weeks after subcutaneous injection of cells. Because the fluorescently labeled Cy dyes may incorporate into the reverse-transcribed cDNA with different efficiencies, RNA isolated from both cell types was always labeled with both combinations of Cy dyes. […] SW1 vector control cells were labeled with Cy-3 (F532) and the SW1-ATF 51-100 cells were labeled with Cy-5 (F635).

“And” between values parts separate entries of the source, which are not always exact repeats. Equal values may be shown once.

Regarding “ATF2^51-100: amino-terminal peptide of ATF2, amino acid residue 51 to 100 (about a 50 amino acid peptide), expressed in tumor cells (MTLKFGPARNDSVIVADQTPTPTRFLKNCEEVGLFNELASPFENEFKKAS; UniProt P15336 51-100, looked up, fragment)”, for the setting “down regulated, IMAGE: 334351, hybridizations #1-#4, listed as ATFp2”, the “Ratio ATFp2-Cy5 vs parental control-Cy3: Mt2 (metallothionein 2)” value was 0.3874 and 0.3888 and 0.4649 and 0.5780. Also, the “Ratio ATFp2-Cy5 vs parental control-Cy3: Hadh (hydroxyacyl-Coenzyme A dehydrogenase)” value (down regulated, IMAGE: 368571, hybridizations #1-#4, listed as ATFp2) was 0.3738 and 0.3752 and 0.5471 and 0.6286. Moreover, the “Ratio ATFp2-Cy5 vs parental control-Cy3: Crabp1 (cellular retinoic acid binding protein I)” value (down regulated, IMAGE: 406272, hybridizations #1-#4, listed as ATFp2) is 0.3248 and 0.361 and 0.3150 and 0.3569. Further, under “down regulated, IMAGE: 516935, hybridizations #1-#4, listed as ATFp2”, the “Ratio ATFp2-Cy5 vs parental control-Cy3: RIKEN cDNA 2900002K07 gene” value is 0.3227 and 0.3239 and 0.2740 and 0.3014. Besides, the “Ratio ATFp2-Cy5 vs parental control-Cy3: Ptk2 (PTK2 protein tyrosine kinase 2)” value (down regulated, IMAGE: 577544, hybridizations #1-#4, listed as ATFp2) was 0.3803 and 0.3817 and 0.3913 and 0.4599. Besides, the “Ratio ATFp2-Cy5 vs parental control-Cy3: Ifit1 (interferon-induced protein with tetratricopeptide repeats 1)” value (down regulated, IMAGE: 616653, hybridizations #1-#4, listed as ATFp2) is 0.2354 and 0.2363 and 0.2637 and 0.3054. Besides, the “Ratio ATFp2-Cy5 vs parental control-Cy3: ESTs” value reads like this: (down regulated, IMAGE: 619632, hybridizations #1-#4, listed as ATFp2) 0.4707 and 0.4724 and 0.3928 and 0.6046; (down regulated, IMAGE: 621129, hybridizations #1-#4, listed as ATFp2) 0.4938 and 0.4955 and 0.3268 and 0.3091. For the same substance, under “down regulated, IMAGE: 620800, hybridizations #1-#4, listed as ATFp2”, the “Ratio ATFp2-Cy5 vs parental control-Cy3: Scya12 (small inducible cytokine A12)” value was 0.2911 and 0.2922 and 0.3318 and 0.4279. The “Ratio ATFp2-Cy5 vs parental control-Cy3: Casp6 (caspase 6)” value (down regulated, IMAGE: 636228, hybridizations #1-#4, listed as ATFp2) was 0.3777 and 0.3791 and 0.4947 and 0.6368. Further, the “Ratio ATFp2-Cy5 vs parental control-Cy3: Igh-1 (immunoglobulin heavy chain 1 (serum IgG2a))” value (down regulated, IMAGE: 636695, hybridizations #1-#4, listed as ATFp2) was 0.3565 and 0.3578 and 0.4847 and 0.6503. For the same substance, the “Ratio ATFp2-Cy5 vs parental control-Cy3: S100a9 (S100 calcium-binding protein A9 (calgranulin B))” value (down regulated, IMAGE: 720190, hybridizations #1-#4, listed as ATFp2) was 0.3486 and 0.3498 and 0.362 and 0.3547. The “Ratio ATFp2-Cy5 vs parental control-Cy3: Jsp18 (ubiquitin specific protease 18)” value (down regulated, IMAGE: 751642, hybridizations #1-#4, listed as ATFp2) is 0.3213 and 0.3225 and 0.2989 and 0.2958. For the same substance, the “Ratio ATFp2-Cy5 vs parental control-Cy3: Plat (plasminogen activator, tissue)” value (down regulated, IMAGE: 836124, hybridizations #1-#4, listed as ATFp2) is 0.4074 and 0.4089 and 0.4019 and 0.5488. Besides, the “Ratio ATFp2-Cy5 vs parental control-Cy3: G0s2 (G0/G1 switch gene 2)” value (down regulated, IMAGE: 864447, hybridizations #1-#4, listed as ATFp2) was 0.4421 and 0.4583 and 0.383 and 0.3949. In addition, the “Ratio ATFp2-Cy5 vs parental control-Cy3: Xlr (X-linked lymphocyte-regulated complex)” value (down regulated, IMAGE: 1022928, hybridizations #1-#4, listed as ATFp2) is 0.1598 and 0.1572 and 0.1540 and 0.1537. Also, for the setting “down regulated, IMAGE: 1023899, hybridizations #1-#4, listed as ATFp2”, the “Ratio ATFp2-Cy5 vs parental control-Cy3: Lgals7 (lectin galactose binding, soluble 7)” value is 0.4381 and 0.4397 and 0.4481 and 0.4781. The “Ratio ATFp2-Cy5 vs parental control-Cy3: Mus musculus, clone MGC: 19199 IMAGE: 4236882, mRNA, complete cds” value (down regulated, IMAGE: 1037652, hybridizations #1-#4, listed as ATFp2) was 0.4768 and 0.4785 and 0.4402 and 0.4792. For the setting “down regulated, IMAGE: 1068714, hybridizations #1-#4, listed as ATFp2”, the “Ratio ATFp2-Cy5 vs parental control-Cy3: Isg15 (interferon-stimulated protein (15 kDa))” value is 0.321 and 0.4337 and 0.4643 and 0.5141. The “Ratio ATFp2-Cy5 vs parental control-Cy3: Ifit3 (interferon-induced protein with tetratricopeptide repeats 3)” value (down regulated, IMAGE: 1210036, hybridizations #1-#4, listed as ATFp2) is 0.4750 and 0.4768 and 0.3824 and 0.3361. Also, the “Ratio ATFp2-Cy5 vs parental control-Cy3: Ensa (endosulfine alpha)” value (down regulated, IMAGE: 1278511, hybridizations #1-#4, listed as ATFp2) was 0.4501 and 0.4517 and 0.4544 and 0.4479. The “Ratio ATFp2-Cy5 vs parental control-Cy3: Myo5b (myosin Vb)” value (down regulated, IMAGE: 1378935, hybridizations #1-#4, listed as ATFp2) was 0.2748 and 0.2758 and 0.2551 and 0.2439. For the setting “down regulated, IMAGE: 1430217, hybridizations #1-#4, listed as ATFp2”, the “Ratio ATFp2-Cy5 vs parental control-Cy3: Mtap6 (microtubule-associated protein 6)” value was 0.3697 and 0.3710 and 0.5261 and 0.7243. The “expression of Fas-associated genes” value (tumors expressing peptide vs control vector) is reported as “down-regulation”.
